In ChEMBL document CHEMBL3785044, “Phenobarbital metabolism in adults and in newborn infants” (Acta Paediatr Scand, 1978):

What was measured:
[1] = Disposition rate constant in newborn infants at 20.6 mg/kg, po by gas chromatography; assay type: ADME, organism-based; details: human, in vivo
Homo sapiens [2] = assay: Apparent volume of distribution in newborn infants at 11.4 mg/kg, im by gas chromatography; assay type: ADME, organism-based; details: in vivo
[3] = Drug excretion in po dosed adult (2 subjects) assessed as unchanged compound level in urine at measured during first 8 days by gas chromatography; assay type: ADME, organism-based; details: human, read-out: Drug excretion
Homo sapiens [4] = assay: Apparent volume of distribution in newborn infants at 20.6 mg/kg, po by gas chromatography; assay type: ADME, organism-based; details: in vivo
Homo sapiens [5] = assay: Apparent drug level in newborn infants at 11.4 mg/kg, po measured at time zero by gas chromatography; assay type: ADME, organism-based; details: in vivo
[6] = Disposition rate constant in subject at 4.33 mg/kg, po by gas chromatography; assay type: ADME, organism-based; details: male, human, in vivo
[7] = Drug excretion in subject assessed as phenobarbital, p-hydroxyphenobarbital and conjugated p-hydroxyphenobarbital level in urine at 5.21 mg/kg, po measured during first 2 weeks by gas chromatography; assay type: ADME, organism-based; details: human, in vivo, 336 h
[8] = Drug excretion in newborn infants (4 patients) assessed as p-hydroxy phenobarbital level in urine at measured during first 8 days by gas chromatography; assay type: ADME, tissue-based; details: human, in vivo, 192 h
Homo sapiens [9] = assay: Disposition rate constant in newborn infants (2 patients) at 12 mg/kg, im by gas chromatography; assay type: ADME, organism-based; details: in vivo
Homo sapiens [10] = assay: Apparent drug level in newborn infants (2 patients) at 12 mg/kg, im measured at time zero by gas chromatography; assay type: ADME, organism-based; details: in vivo
[11] = Plasma concentration in subject at 5.21 mg/kg, po measured after 17 days by gas chromatography; assay type: ADME, organism-based; details: female, human
[12] = Drug excretion in newborn infants (4 patients) assessed as unchanged compound level in urine at measured during first 8 days by gas chromatography; assay type: ADME; details: human, read-out: Drug excretion
[13] = Disposition rate constant in subject at 5.21 mg/kg, po by gas chromatography; assay type: ADME, organism-based; details: female, human, in vivo
Homo sapiens [14] = assay: Apparent volume of distribution in newborn infants (2 patients) at 12 mg/kg, im by gas chromatography; assay type: ADME, organism-based; details: in vivo
[15] = Half life in newborn infants at 20.6 mg/kg, po by gas chromatography; assay type: ADME, organism-based; details: human, in vivo
Homo sapiens [16] = assay: Apparent drug level in newborn infants at 20.6 mg/kg, po measured at time zero by gas chromatography; assay type: ADME, organism-based; details: in vivo
[17] = Half life in subject at 5.21 mg/kg, po by gas chromatography; assay type: ADME, organism-based; details: female, human, in vivo
Homo sapiens [18] = assay: Apparent volume of distribution in male subject at 4.33 mg/kg, po by gas chromatography; assay type: ADME, organism-based; details: in vivo
[19] = Drug excretion in subject assessed as phenobarbital, p-hydroxyphenobarbital and conjugated p-hydroxyphenobarbital level in urine at 4.33 mg/kg, po measured during first 2 weeks by gas chromatography; assay type: ADME, organism-based; details: human, in vivo, 336 h
[20] = Half life in newborn infants at 11.4 mg/kg, im by gas chromatography; assay type: ADME, organism-based; details: human, in vivo
Homo sapiens [21] = assay: Apparent volume of distribution in subject at 5.21 mg/kg, po by gas chromatography; assay type: ADME, organism-based; details: in vivo
Homo sapiens [22] = assay: Half life in newborn infants (2 patients) at 12 mg/kg, im by gas chromatography; assay type: ADME, organism-based; details: in vivo
[23] = Drug excretion in subject assessed as phenobarbital, p-hydroxyphenobarbital and conjugated p-hydroxyphenobarbital level in urine at 5.21 mg/kg, po measured during 4 week period by gas chromatography; assay type: ADME, organism-based; details: human, in vivo, 672 h
Homo sapiens [24] = assay: Apparent drug level in subject at 5.21 mg/kg, po measured at time zero by gas chromatography; assay type: ADME, organism-based; details: in vivo
Homo sapiens [25] = assay: Apparent drug level in subject at 4.33 mg/kg, po measured at time zero by gas chromatography; assay type: ADME, organism-based; details: in vivo
[26] = Half life in subject at 4.33 mg/kg, po by gas chromatography; assay type: ADME, organism-based; details: male, human, in vivo
[27] = Disposition rate constant in newborn infants at 11.4 mg/kg, im by gas chromatography; assay type: ADME, organism-based; details: human, in vivo

With `CCC1(c2ccccc2)C(=O)NC(=O)NC1=O` [PHENOBARBITAL] the k el [1] was 2.33e-06 s⁻¹, the “Vd(app)” value (Homo sapiens [2]) was 0.99 L/kg and the dose excreted at 192 h [3] was 16%. For the same compound, the “Vd(app)” value (Homo sapiens [4]) was 0.98 L/kg, the Drug uptake (Homo sapiens [5]) was 17.8 µg/mL and the k el [6] was 2.28e-06 s⁻¹. It also gave a Drug excretion [7] of 65%, a Drug excretion [8] of 10% and a K (Homo sapiens [9]) of 0.004 h⁻¹. The Drug uptake (Homo sapiens [10]) was 18.1 µg/mL, the concentration at 408 h [11] was 500 ng/mL and the dose excreted at 192 h [12] was 17%. The k el [13] was 1.64e-06 s⁻¹, the “Vd(app)” value (Homo sapiens [14]) was 0.59 L/kg and the half-life [15] was 83 h. For the same compound, the Drug uptake (Homo sapiens [16]) was 21 µg/mL, the half-life [17] was 117 h and the “Vd(app)” value (Homo sapiens [18]) was 0.47 L/kg. The Drug excretion [19] was 35%, the half-life [20] was 119 h and the “Vd(app)” value (Homo sapiens [21]) was 0.52 L/kg. For the same compound, the t1/2 (Homo sapiens [22]) was 61 h, the Drug excretion [23] was 75% and the Drug uptake (Homo sapiens [24]) was 10 µg/mL. It also gave a Drug uptake (Homo sapiens [25]) of 9.3 µg/mL, a half-life [26] of 84 h and a k el [27] of 1.61e-06 s⁻¹.
